In brackets after ≈: the same amount, converted by molar mass.

Data on 12 molecules can be found in ChEMBL document CHEMBL1127778, “Structure-activity relationship of novel distamycin a derivatives : synthesis and antitumor activity” (Bioorg Med Chem Lett, 1994).

The test system of experiment [1] is L1210. Put plainly: In vitro inhibitory activity against Doxorubicin resistant L1210 leukemia cell lines ( ratio between IC50 values on resistant cells and sensitive cells). In kind it is functional, Mus musculus.
The subject of experiment [2] is L1210. In words: In vitro inhibitory activity against FCE 24517 resistant L1210 leukemia cell lines ( ratio between IC50 values on resistant cells and sensitive cells). The class given is functional, Mus musculus.
In experiment [3] the test system is L1210. In words: Optimal dose was measured in vivo on L1210 murine leukemia cells in CD2F1 mice(ip). In kind it is functional, Mus musculus.
For experiment [4], the system named is L1210. In words: The activity in vitro on L1210 murine leukemia cells, activity expressed as IC50. The class given is functional, cell-based, Mus musculus.
In experiment [5] the test system is Mus musculus. In words: Median survival time of treated mice / Median survival time of controls x100 was measured in vivo on L1210 murine leukemia cells. The class given is functional.
The mark [6] stands for this setting: Mus musculus, L1210, read-out: IC50.

As a reminder, the IC50 is the concentration that inhibits the measured activity by half. As a reminder, the T/C is the result in the treated group divided by that in the control group, in per cent. In the case of `Cl.Cn1cc(NC(=O)c2cc(NC(=O)c3cc(NC(=O)c4ccc(N(CCCl)CCCl)cc4)cn3C)cn2C)cc1C(=O)NCCC(=N)N` [TALLIMUSTINE CHLORIDE], the R.I came to 28 in experiment [1] and 21.7 in experiment [2]. For the same molecule, the OD in experiment [3] was 3.125 mg/kg. Moreover, the IC50 in experiment [4] (setting [6]) was 0.0244 µg/mL. Moreover, the T/C in experiment [5] was determined as 175%.

For `Cl.Cn1cc(NC(=O)c2cc(NC(=O)c3cc(NC(=O)c4cc(NC(=O)C5CO5)cn4C)cn3C)cn2C)cc1C(=O)NCCC(=N)N` (stereo not drawn), the R.I in experiment [1] was 1.7; in experiment [2], 24.1. The molecule further gave an OD in experiment [3] of 3.125 mg/kg. Besides, in experiment [4] (setting [6]), the IC50 was found to be 0.0389 µg/mL. The same molecule showed a T/C in experiment [5] of 188%.

On to `Cl.Cn1cc(NC(=O)c2cc(NC(=O)c3cc(NC(=O)C4CO4)cn3C)cn2C)cc1C(=O)NCCC(=N)N` (stereo not drawn), for which the R.I in experiment [1] is recorded as 7.1; in experiment [2], 44.4. In experiment [3], this molecule showed an OD of 50 mg/kg. The IC50 in experiment [4] (setting [6]) came out at 0.229 µg/mL. In experiment [5], this molecule yielded a T/C of 188%.

`C=C(Br)C(=O)Nc1cc(C(=O)Nc2cc(C(=O)Nc3cc(C(=O)NCCC(=N)N)n(C)c3)n(C)c2)n(C)c1.Cl`: the R.I was 8.8 in experiment [1] and 11.4 in experiment [2]. This molecule also returned an OD in experiment [3] of 12.5 mg/kg. For the same molecule, in experiment [4] (setting [6]), the IC50 stood at 0.0496 µg/mL. In experiment [5], the T/C came to 175%.

Regarding `Cl.Cn1cc(NC(=O)c2cc(NC(=O)c3cc(NC(=O)c4cc(NC=O)cn4C)cn3C)cn2C)cc1C(=O)NCCC(=N)N`, the R.I was 175.4 in experiment [1] and 169.9 in experiment [2]. Moreover, the IC50 in experiment [4] (setting [6]) is 0.285 µg/mL.

For the molecule `C=C(Br)C(=O)Nc1cc(C(=O)Nc2cc(C(=O)Nc3cc(C(=O)Nc4cc(C(=O)NCCC(=N)N)n(C)c4)n(C)c3)n(C)c2)n(C)c1.Cl`, the R.I was determined as 3.8 in experiment [1] and 27 in experiment [2]. The OD in experiment [3] was 3.125 mg/kg. In addition, the IC50 in experiment [4] (setting [6]) was 0.0047 µg/mL. The T/C in experiment [5] is listed as 206%.

As for `C=C(Br)C(=O)O`, the results for the R.I in experiment [1] and in experiment [2] were 1.1 and 0.5, respectively. Further, the IC50 in experiment [4] (setting [6]) stood at 18.8 µg/mL (≈ 125 µM).

Regarding `Cn1cc(NC(=O)c2cc(NC(=O)c3cc(NC=O)cn3C)cn2C)cc1C(=O)NCCC(=N)N` [STALLIMYCIN], the R.I is listed as 45.6 in experiment [1] and 14.1 in experiment [2]. In addition, the OD in experiment [3] worked out at 200 mg/kg. Also, in experiment [4] (setting [6]), the IC50 is 5.22 µg/mL (≈ 10.8 µM). In experiment [5], the T/C is given as 113%.

Regarding `O=C(O)C1CO1` (stereo not drawn), the R.I is recorded as 1 in experiment [1] and 0.5 in experiment [2]. This molecule gave an IC50 in experiment [4] (l1210) of 131.397 µg/mL (≈ 1490 µM).

Consider `C=C(Cl)C(=O)Nc1cc(C(=O)Nc2cc(C(=O)Nc3cc(C(=O)NCCC(=N)N)n(C)c3)n(C)c2)n(C)c1.Cl`, for which the R.I is 40.3 in experiment [1] and 24.8 in experiment [2]. The OD in experiment [3] amounted to 10 mg/kg. Also, the IC50 in experiment [4] (setting [6]) was determined as 0.056 µg/mL. Moreover, in experiment [5], the T/C stood at 184%.

As to `C=C(Cl)C(=O)Nc1cc(C(=O)Nc2cc(C(=O)Nc3cc(C(=O)Nc4cc(C(=O)NCCC(=N)N)n(C)c4)n(C)c3)n(C)c2)n(C)c1.Cl`, the R.I is 59.9 in experiment [1] and 69.6 in experiment [2]. In experiment [3], this molecule yielded an OD of 3.125 mg/kg. For the same molecule, the IC50 in experiment [4] (setting [6]) was found to be 0.0027 µg/mL. Also, the T/C in experiment [5] is recorded as 171%.

On to `Cl.Cn1cc(NC(=O)c2cc(NC(=O)c3cc(NC(=O)c4cc(NC(=O)c5ccc(N(CCCl)CCCl)cc5)cn4C)cn3C)cn2C)cc1C(=O)NCCC(=N)N`, for which the R.I in experiment [2] came to 65.4. In addition, in experiment [3], the OD was 0.39 mg/kg. Also, the IC50 in experiment [4] (setting [6]) worked out at 0.0163 µg/mL. Further, in experiment [5], the T/C was 138%.
